Source: patent US20260000645A1, “USE OF EBSELEN OR ONE OF THE DERIVATIVES THEREOF TO TREAT MITOCHONDRIAL PATHOLOGIES OR DYSFUNCTIONS” (ASSOCIATION FRANCAISE CONTRE LES MYOPATHIES, priority 2022, published 2026)

Experiments:
[1] = tested on: fibroblasts of TAZ patients; assay: Respiratory growth/proliferation of fibroblasts of TAZ patients (SRB, low glucose); type: cell-based, human; details: 96 hours; vs negative control DMSO
Experimental: EBS was tested for the effect thereof on the respiratory growth of fibroblasts of TAZ patients, as opposed to fibroblasts from eight different patients, carriers of mutations in the TAZ gene (suffering from Barth's syndrome).
The rate of proliferation was measured in a medium with a weak concentration of glucose (1 g/L; to force cells to use the OXPHOS system rather than glycolyse) in 384 well micro-titration plates (1200 cells/wells at T0) using the Sulforhodamine B (SRB) staining protocol at 24, 48, 72 or 96 hours after placing the cells with or without 12.15 nM of EBS.
The data are the average of 8 patients or 3 controls in triplicate, in 4 independent experiments.
The rate of proliferation was then measured under the same experimental conditions but with variable concentrations of ethaselen: The cells were analyzed 96 hours after treatment with increasing doses of ethaselen (from 150 pM to 26.1 μM). The bars represent the average of 4 replicates coming from 2 patients in 3 independent experiments.

mutant yeast strain taz1 = assay: Halos test: respiratory growth of mutant yeast strain taz1 on non-fermentable solid medium; type: cell-based, Saccharomyces cerevisiae; details: 100 nmoles; compared with ebselen 100 nmoles; no halo with DMSO
From the text: C/ Effect (detected by the halos test) of ebselen oxide on the respiratory growth of the mutant yeast strain taz1 on non-fermentable solid medium, in comparison with ebselen (B) and DMSO (D)
As previously described (WO2020/254632), the different mutant yeast strains were spread over the solid respiratory agar-agar based media (containing glycerol or ethanol as the unique carbon source) and exposed to filters on which the compound tested, in particular ebselen (EBS) was deposited. The dishes were then incubated at the temperature indicated (that could be 28° C. or 36° C. depending on the strain used).
More precisely, 0.125 OD of mutant cells with exponential growth were spread homogeneously with sterile glass beads in a square Petri dish (12 cm×12 cm) containing a solid respiratory medium (YPA Ethanol, 1% yeast extract, 0.5% Bacto Peptone, 40 mg/L Adenine, 2% Ethanol for sym1 and taz1; or YPA Glycerol 2% for cox2, fmc1, atp6, shy1 et A29G). […] On each dish, the DMSO (buffer) was used as negative control (upper left-hand filter). The dishes were then incubated at 28° C. (for shy1) or 36° C. (for cox2, sym1, fmc1, atp6 taz1 and A29G) for 4 to 5 days, then photographed. The improvement of the growth was evaluated after a plurality of days of incubation by the appearance of a halo of improved growth around the filter where the active ingredient was deposited.

Row | SMILES | concentration range improving respiratory growth/proliferation, lower limit [1] | concentration range improving respiratory growth/proliferation, upper limit [1] | respiratory growth (halo) of mutant taz1 (mutant yeast strain taz1)
1 | O=c1c2ccccc2[se]n1CCn1[se]c2ccccc2c1=O [ethasalen, Ethaselen] | about 1 nM | ≤ 3 µM | 
2 | O=C1c2ccccc2[Se](=O)N1c1ccccc1 (stereo not drawn) [ebselen oxide, 1-oxide-2-phenyl-1,2-benzisoselenazol-3(2H)-one] |  |  | activity comparable to ebselen
